Measured values reported in publication PMC5716539, “The acute glucose lowering effect of specific GPR120 activation in mice is mainly driven by glucagon-like peptide 1” (PLoS ONE, 2017).

Experiments:
human GPR120 [1] = target: T1, human GPR120 (Homo sapiens, UniProt Q5NUL3); test: β-arrestin recruitment (Tango) assay in U2OS-hGPR120 cells; format: cell-based
T1 construct: expressed in transfected cells
T1 sequence (Q5NUL3 1-361): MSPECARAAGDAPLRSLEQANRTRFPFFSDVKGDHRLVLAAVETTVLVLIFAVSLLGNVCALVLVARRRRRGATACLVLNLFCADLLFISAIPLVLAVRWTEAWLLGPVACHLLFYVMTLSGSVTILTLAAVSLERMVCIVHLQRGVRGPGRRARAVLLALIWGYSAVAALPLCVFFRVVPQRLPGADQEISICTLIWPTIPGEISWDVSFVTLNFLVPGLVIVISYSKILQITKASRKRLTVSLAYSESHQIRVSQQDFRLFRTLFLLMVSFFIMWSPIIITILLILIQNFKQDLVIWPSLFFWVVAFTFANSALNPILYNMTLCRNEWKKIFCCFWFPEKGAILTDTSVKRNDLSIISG
Procedure: U2OS-hGPR120 cells cultured in Freestyle medium (Invitrogen) were incubated for 5 hours with GPR120 agonists in 384-well Cell BIND plates (Corning) at 37°C, 95% humidity and 5% CO2. LiveBLAzer™ FRET B/G working solution (Invitrogen) was added and after 2 hours at room temperature fluorescence intensity (λex = 405 nm, λem = 530 and 460 nm) was detected using a Pherastar FS (BMG Labtech) according to the manufacturers protocol.

mouse GPR120 = target: T2, mouse GPR120 (Mus musculus, UniProt Q7TMA4); test: DMR assay in CHO-mGPR120 cells; format: cell-based
T2 construct: expressed in transfected cells
T2 sequence (Q7TMA4 1-361): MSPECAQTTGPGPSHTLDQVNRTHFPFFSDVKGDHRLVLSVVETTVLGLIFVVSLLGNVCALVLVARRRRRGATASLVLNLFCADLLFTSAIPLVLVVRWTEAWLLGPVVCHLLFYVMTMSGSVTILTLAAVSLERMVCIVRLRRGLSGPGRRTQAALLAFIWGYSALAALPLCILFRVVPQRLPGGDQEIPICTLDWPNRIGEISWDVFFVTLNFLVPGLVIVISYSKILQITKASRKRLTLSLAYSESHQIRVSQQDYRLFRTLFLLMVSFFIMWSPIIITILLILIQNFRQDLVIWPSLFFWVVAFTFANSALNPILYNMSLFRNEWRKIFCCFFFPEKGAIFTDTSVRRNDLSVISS
Procedure: (§1) DMR (dynamic mass redistribution) was measured by resonant waveguide grating (RWG) using an Epic biosensor (Corning). CHO-hGPR120, CHO-mGPR120 and CHO cells in DMEM/F-12 (Invitrogen) were cultured in fibronectin coated 384-well Epic plates (Corning) at 37°C, 95% humidity and 5% CO2 for 5 hours with 10% FBS (Sigma), followed by 19 hours without FBS. CHO-hGPR40 cells were cultured at 37°C, 95% humidity and 5% CO2 for 20–24 hours in Ham’s F-12 Nutrient Mix with GlutaMAX (Invitrogen) supplemented with Non-Essential Amino Acids (Gibco) and 10% FBS (Sigma) in fibronectin coated 384-well Epic plates (Corning). Following the incubations culture media was replaced with HBSS (Invitrogen), 20 mM HEPES (Invitrogen), pH 7.4 and 1% DMSO and equilibrated to 26°C in the Epic for thirty min before addition of agonists and detection of DMR.

mouse GPR40 = target: T3, mouse GPR40 (Mus musculus, UniProt Q76JU9); test: Calcium mobilization assay in HEK293-mGPR40 cells; format: cell-based
T3 construct: expressed in transfected cells
T3 sequence (Q76JU9 whole entry): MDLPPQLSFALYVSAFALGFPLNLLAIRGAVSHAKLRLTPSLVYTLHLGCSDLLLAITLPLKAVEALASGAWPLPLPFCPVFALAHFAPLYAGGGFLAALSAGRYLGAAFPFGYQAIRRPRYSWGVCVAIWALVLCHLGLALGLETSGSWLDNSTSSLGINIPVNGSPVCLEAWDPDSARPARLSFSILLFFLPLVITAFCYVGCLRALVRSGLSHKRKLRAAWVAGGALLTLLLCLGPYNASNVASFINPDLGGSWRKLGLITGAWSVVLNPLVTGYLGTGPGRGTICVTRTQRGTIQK
Procedure: (§2) CHO-hGPR120 and CHO cells were cultured in DMEM/F-12 (Invitrogen) with 10% FBS (Sigma) and HEK293-mGPR40 in DMEM (Invitrogen) supplemented with 10% FBS in 384-well poly-D-Lysin coated microplates (Greiner) at 37°C, 95% humidity and 5% CO2. After 19 hours cell media was replaced with Calcium4 dye (Molecular Devices) in HBSS (Invitrogen), 20 mM HEPES (Invitrogen), pH 7.4 and 1.25 mM Probenecid (Sigma). After 1 hour at room temperature agonists were added and calcium mobilization was detected as change in fluorescence (λex = 488 and λem = 540 nm) using a FLIPR^TETRA (Molecular Devices).

lean female mice = test: Intravenous glucose tolerance test (IVGTT) in lean female mice; format: in vivo, mouse; conditions: for Basal blood glucose: 4-hour fasted female mice, oral Metabolex-36 100 mg/kg or AZ13581837 35 mg/kg, vehicle 7.8±0.2 mM; for Acute insulin response (AIR): vs controls; for Acute insulin response (AIR) / Glucose elimination between 1 and 20 min / Time after iv glucose bolus up to which insulin levels were significantly elevated: Metabolex-36 100 mg/kg; for Acute insulin response (AIR) / Glucose elimination between 1 and 20 min: AZ13581837 35 mg/kg oral; for Time after iv glucose bolus up to which insulin levels were significantly elevated: oral pre-administration, AZ13581837 35 mg/kg
Procedure: Lean female mice (body weight 20–25 g), were randomized on body weight and fasted 4 hours prior to the IVGTT. Metabolex-36 (100 mg/kg) was administered orally 60 min and AZ13581837 (35mg/kg) 30 min before the IVGTT ([…]). Control mice were given vehicle (0.5% HPMC, 0.1% Tween-80) at corresponding time points. The specificity of AZ13581837 was examined in IVGTT in GPR120 null mice. GPR120 agonist doses were selected to reach plasma levels of at least 10 times over the in vitro EC50 value to achieve maximal activation of GPR120 (S2 Appendix). Thirty minutes prior to the glucose load, the mice were anaesthetised (20 mg/kg fluanisone/0.8 mg/kg fentanyl (Hypnorm®, Janssen, Beerse, Belgium) and 10 mg/kg midazolam (Dormicum®, Hoffman-LaRoche, Basel, Switzerland)) to allow for rapid blood sampling. The mice were kept at a heating pad to maintain body temperature.
In separate experiments, mice were pretreated with the GLP-1 receptor antagonist exendin 9–39 (30 nmol/kg, Bachem; intraperitoneally) alone or in combination with the GPR120 agonists, 15 min prior to the IVGTT. Insulin and glucose were measured 0, 1, 5, 10, 20 and 40 min after intravenous (iv) glucose administration. In separate groups of mice total GLP-1 levels were measured 60 min after oral administration of Metabolex-36 or 30 min after AZ13581837 and in corresponding vehicle (0.5% HPMC, 0.1% Tween-80) dosed mice. Blood samples were collected in EDTA coated tubes, centrifuged at 10000xg for 4 min, and plasma was separated and stored frozen until analyzed.
In the IVGTT, the acute insulin response (AIR) was calculated as the mean of suprabasal 1 and 5 min values, and the glucose elimination was quantified using the glucose elimination constant (KG) calculated as the slope of the logarithmic transformation of circulating glucose between 1 and 20 min after the glucose bolus. Multiple comparisons between the different groups were performed by one-way ANOVA. Tukey’s or Bonferroni’s post hoc test were used to calculate statistical differences between the groups. Significant statistical difference was considered at p<0.05. Data are presented as mean ± SEM.

control CHO cells = test: Calcium mobilization assay in control CHO cells; format: cell-based, Chinese hamster
Procedure: as §2

human GPR120 [2] = target: T1, human GPR120; test: Calcium mobilization assay in CHO-hGPR120 cells; format: cell-based; conditions: for Calcium mobilization after Gαq inhibition: CHO-hGPR120 cells pre-treated with 1 μM QIC; for EC50: CHO-hGPR120 cells, mean ± SEM
Procedure: as §2

human GPR40 = human GPR40 (Homo sapiens, UniProt O14842); test: DMR assay in CHO-hGPR40 cells; format: cell-based
human GPR40, sequence (O14842 whole entry): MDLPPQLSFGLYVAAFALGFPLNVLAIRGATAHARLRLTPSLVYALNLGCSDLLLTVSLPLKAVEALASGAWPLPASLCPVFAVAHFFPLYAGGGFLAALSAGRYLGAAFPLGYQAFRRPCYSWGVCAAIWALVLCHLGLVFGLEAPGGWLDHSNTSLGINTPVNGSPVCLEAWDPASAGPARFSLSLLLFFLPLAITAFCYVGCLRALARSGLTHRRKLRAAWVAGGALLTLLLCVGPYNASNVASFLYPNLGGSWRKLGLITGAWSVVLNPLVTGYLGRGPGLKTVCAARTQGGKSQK
Procedure: as §1

[3] = exendin 9–39 30 nmol/kg i.p. 15 min prior to IVGTT

Compound	EC50 (human GPR120 [1]) [nM]	EC50 (mouse GPR120) [nM]	Activation of mouse GPR40 in calcium mobilization assay (mouse GPR40)	Basal blood glucose (lean female mice) [mM]	Acute insulin response (AIR) (lean female mice; IVGTT)	Glucose elimination between 1 and 20 min (lean female mice; IVGTT)	Agonist-induced increase in insulin secretion after co-administration with exendin 9–39 (lean female mice; [3])	Insulin secretion in IVGTT (agonist alone) (lean female mice; exendin 9–39 experiment, agonist alone vs vehicle)	Acute insulin secretion in wt mice (lean female mice; female wild type mice, AZ13581837 30 min prior to iv glucose, vs vehicle, p<0.05)	Glucose elimination in wt mice compared to compound treated GPR120 null mice (lean female mice; female wt mice, IVGTT, p<0.05)	Time after iv glucose bolus up to which insulin levels were significantly elevated (lean female mice)	Calcium response in control CHO cells (control CHO cells)	Calcium mobilization after Gαq inhibition (human GPR120 [2])	EC50 (human GPR120 [2]) [nM]	DMR response in CHO-hGPR40 cells (human GPR40)	EC50 (human GPR120 [1]; read-out: β-arrestin EC50, β-arrestin recruitment in U2OS-hGPR120 cells, mean ± SEM) [nM]	Acute insulin response when given together with exendin 9–39 (lean female mice; [3])	Glucose elimination when given together with exendin 9–39 (lean female mice; [3])	Glucose lowering effect in combination with exendin 9–39 (lean female mice; [3])
C#Cc1cc(Oc2cccnc2)cc(N2Cc3ccccc3S2(=O)=O)c1 [AZ13581837, 2-(3-ethynyl-5-(3-pyridyloxy)phenyl)-3H-1,2-benzothiazole 1,1-dioxide]	5.2 ± 0.4	4.3 ± 0.6	did not activate	7.1 ± 0.3	significant increase	increased the glucose elimination	completely abolished	significant increase	significantly increased	increased	up to 10 minutes	no response	completely abolished	120 ± 20	Neither AZ13581837 nor Metabolex-36 were able to induce a DMR response				
3-(3,5-difluoro-4-((3-methyl-1-phenyl-1H-pyrazol-5-yl)methoxy)phenyl)-2-methylpropanoic acid [Metabolex-36]		130 ± 20	did not activate	6.9 ± 0.2	significant increase	increased the glucose elimination	abolished				up to 5 minutes	no response	completely abolished	1800 ± 190	Neither AZ13581837 nor Metabolex-36 were able to induce a DMR response	1400 ± 700	reduced to vehicle levels	reduced to vehicle levels	abolished
